The test system of data set [1] is subcutaneous xenograft tumor of human gastric cancer NCI-N87 cells. The experiment in a line: In vivo pharmacodynamics, NCI-N87 subcutaneous xenograft (Assay Example 4). On the set-up: species or system mouse. The settings on record: 0.5 mg/kg, compared with the vehicle control group. As for the experimental part: (§1) Purpose of the assay: in vivo efficacy of the assay compound disclosed herein on subcutaneous xenograft tumor of human gastric cancer NCI-N87 cells in a BALB/c nude mouse model was evaluated.
Animals of the assay: female BALB/c nude mice, 6-8 weeks old, weighted 18-22 grams; supplier: shanghai sippr bk laboratory animals Ltd.
Human gastric cancer NCI-N87 cells were cultured in monolayer in vitro. The culture conditions were RPMI-1640 medium plus 10% fetal bovine serum, 100 U/mL penicillin, 100 μg/mL streptomycin, 37° C., 5% CO2. The passaging was performed by conventional digestion with trypsin-EDTA twice a week. When the cell saturation was 80%-90%, the cells were collected, counted and inoculated.
0.2 mL (10×10^6) of NCI-N87 cells (PBS+Matrigel, 1:1) were inoculated subcutaneously on the right back of each mouse. […]
The assay index was to investigate whether tumor growth is inhibited, delayed or cured. Tumor diameter was measured twice a week with a vernier caliper. […]
The antitumor efficacy of the compounds was evaluated by TGI (%) or tumor proliferation rate T/C (%). […]
Statistical analysis included the mean and standard error of mean (SEM) of tumor volume at each time point in each group (See Table 14 for specific data). […] The comparison between groups was analyzed by T-test, and the comparison among three or more groups was analyzed by one-way ANOVA. […]

Data set [2] has the same test system. The experiment in a line: In vivo pharmacodynamics, NCI-N87 subcutaneous xenograft (Assay Example 3). On the set-up: species or system mouse. As to the method:
as §1
Animals of the assay: female BALB/c nude mice, 6-8 weeks old, weighted 18-22 grams; supplier: Shanghai Ling Chang Biotechnology Co., Ltd.
Human gastric cancer NCI-N87 cells were cultured in monolayer in vitro. The culture conditions were RPMI-1640 medium plus 10% fetal bovine serum, 100 U/mL penicillin, 100 U/mL streptomycin and 2 mM glutamine, 37° C., 5% CO2. The passaging was performed by the conventional digestion with trypsin-EDTA twice a week. When the cell saturation was 80%-90%, the cells were collected, counted and inoculated.
0.2 mL (10×10^6) of NCI-N87 cells (PBS+Matrigel, 1:1) were inoculated subcutaneously on the right back of each nude mouse. When the average tumor volume reached 158 mm^3, administration to each group was started.
The assay compounds were formulated into 0.04 mg/mL and 0.08 mg/mL clear solution in the solvents of 10% NMP (N-methylpyrrolidone)+10% ethylene glycol stearate+80% water.
The assay index was to investigate whether tumor growth is inhibited, delayed or cured. Tumor diameter was measured twice a week with a vernier caliper. The calculation formula of tumor volume was: V=0.5a×b^2, wherein a and b represent the long and short diameters of tumor, respectively.
The antitumor efficacy of the compounds was evaluated by TGI (%) or tumor proliferation rate T/C (%). TGI (%) reflects tumor growth inhibition rate. […]
Statistical analysis included mean and standard error of mean (SEM) of tumor volume at each time point in each group (See Table 13 for specific data). […] The comparison between groups was analyzed by T-test, and the comparison among three or more groups was analyzed by one-way ANOVA. […]

The target in a further data set is T1, CYP2D6 (Homo sapiens, UniProt P10635).
T1 construct: in the assay of CYP enzyme activity in human liver microsome; from tissue; host or cells: human liver microsome
T1 sequence (P10635 whole entry): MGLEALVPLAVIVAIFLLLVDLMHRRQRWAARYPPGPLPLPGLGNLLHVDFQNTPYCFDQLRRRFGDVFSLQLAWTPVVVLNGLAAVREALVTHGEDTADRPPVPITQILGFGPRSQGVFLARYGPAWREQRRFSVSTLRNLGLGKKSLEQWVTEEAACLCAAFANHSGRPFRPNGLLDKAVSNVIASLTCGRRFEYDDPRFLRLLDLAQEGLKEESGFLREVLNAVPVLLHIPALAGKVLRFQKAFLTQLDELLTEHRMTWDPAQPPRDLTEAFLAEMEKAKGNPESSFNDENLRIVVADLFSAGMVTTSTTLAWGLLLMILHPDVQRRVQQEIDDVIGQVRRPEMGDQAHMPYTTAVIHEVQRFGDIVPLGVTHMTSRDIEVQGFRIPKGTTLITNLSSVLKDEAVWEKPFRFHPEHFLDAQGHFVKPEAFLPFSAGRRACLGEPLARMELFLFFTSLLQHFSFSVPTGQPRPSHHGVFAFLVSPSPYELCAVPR
The experiment in a line: Inhibition of CYP enzyme activity in human liver microsome, CYP2D6. Conditions: versus Poziotinib. It is filed as in vitro ADME. The text has this: (§2) The results of the compound disclosed herein and the reference compound Poziotinib in the assay of CYP enzyme activity in human liver microsome were shown in the following table (Table 17).
(Microsomes from liver hold many membrane-bound enzymes, among them those of drug oxidation.)

Another data set concerns the target T2, CYP1A2 (Homo sapiens, UniProt P05177).
T2 construct: in the assay of CYP enzyme activity in human liver microsome; from tissue; host or cells: human liver microsome
T2 sequence (P05177 1-516): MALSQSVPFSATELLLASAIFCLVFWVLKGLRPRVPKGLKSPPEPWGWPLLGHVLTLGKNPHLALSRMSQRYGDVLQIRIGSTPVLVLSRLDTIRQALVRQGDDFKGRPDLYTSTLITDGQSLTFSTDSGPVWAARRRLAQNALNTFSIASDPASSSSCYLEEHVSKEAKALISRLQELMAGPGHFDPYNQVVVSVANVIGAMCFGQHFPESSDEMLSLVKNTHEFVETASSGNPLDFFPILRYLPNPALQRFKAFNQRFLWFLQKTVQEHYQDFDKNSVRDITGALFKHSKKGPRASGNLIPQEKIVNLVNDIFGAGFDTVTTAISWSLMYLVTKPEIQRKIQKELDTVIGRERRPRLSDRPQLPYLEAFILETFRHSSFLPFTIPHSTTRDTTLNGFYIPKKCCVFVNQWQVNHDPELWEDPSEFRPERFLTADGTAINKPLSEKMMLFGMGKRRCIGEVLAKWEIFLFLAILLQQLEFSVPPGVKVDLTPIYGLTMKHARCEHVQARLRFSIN
Nature of the data set: Inhibition of CYP enzyme activity in human liver microsome, CYP1A2. It is filed as in vitro ADME. Conditions: microsomes.
Excerpt: as §2

The target of another data set is T3, CYP2C9 (Homo sapiens, UniProt P11712).
T3 construct: in the assay of CYP enzyme activity in human liver microsome; from tissue; host or cells: human liver microsome
T3 sequence (P11712 whole entry): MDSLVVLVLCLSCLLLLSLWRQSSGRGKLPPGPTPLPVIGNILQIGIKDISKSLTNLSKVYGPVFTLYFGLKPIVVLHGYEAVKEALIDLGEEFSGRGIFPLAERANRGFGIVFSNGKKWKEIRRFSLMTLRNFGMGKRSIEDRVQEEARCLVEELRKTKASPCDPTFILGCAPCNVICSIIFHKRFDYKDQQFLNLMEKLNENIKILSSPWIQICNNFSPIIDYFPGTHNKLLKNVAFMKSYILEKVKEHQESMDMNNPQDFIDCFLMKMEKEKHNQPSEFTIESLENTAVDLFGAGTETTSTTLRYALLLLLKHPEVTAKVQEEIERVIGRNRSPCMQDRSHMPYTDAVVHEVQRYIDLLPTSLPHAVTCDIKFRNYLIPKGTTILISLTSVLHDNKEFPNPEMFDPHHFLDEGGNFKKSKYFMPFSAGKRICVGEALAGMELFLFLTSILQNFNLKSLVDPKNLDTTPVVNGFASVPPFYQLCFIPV
The experiment in a line: Inhibition of CYP enzyme activity in human liver microsome, CYP2C9. It is filed as in vitro ADME. Conditions: versus Poziotinib.
Excerpt: as §2

Regarding `C=CC(=O)N1[C@@H]2CC[C@H]1C[C@H](Nc1cc3c(Nc4ccc(Cl)c(Cl)c4F)ncnc3cc1OC)C2` [Compound of formula (I)], the “tumor inhibitory effect (in words)” value in data set [1] is given as “significant tumor inhibitory effect”; in data set [2] (0.8 mg/kg, compared with the vehicle control group), “significant tumor inhibitory effect”. Moreover, in data set [2] (low-dose group (0.4 mg/kg)), the “drug efficacy compared with Poziotinib (in words)” value was “comparable to or better than the reference compound Poziotinib”. The “activity on CYP2D6, times better than the reference compound” value at CYP2D6 is 6 times. Also, the “inhibitory activity on CYP1A2 (in words)” value on CYP1A2 is “no inhibitory activity”. Further, at CYP2C9, the “activity on CYP2C9, times better than the reference compound” value was 2 times.
